Measurements as given in ChEMBL document CHEMBL1201862, “PubChem BioAssay data set” (2004).
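Grown in 96-well plates, cells were treated for 48 hours with each compound at five concentrations. Insufficient inhibition: endpoint recorded as highest concentration tested. At the GI50, growth is halved.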 Active and inactive are the calls of the source. Cut-off read from the data, not from the text of the source: active = GI50 up to about 1.1 µM and inactive = higher.

Legend:
Assay in all cases: growth of human tumour cells (NCI), 48 h
HCC 2998 = system: HCC 2998
HT-29 = system: HT-29
SF-268 = system: SF-268
K562 = system: K562
MDA-MB-231 = system: MDA-MB-231
HOP-62 = system: HOP-62
MDA-MB-435 = system: MDA-MB-435
UACC-62 = system: UACC-62
Malme-3M = system: Malme-3M
U-251 = system: U-251
HCT-116 = system: HCT-116
T47D = system: T47D
TK-10 = system: TK-10
COLO 205 = system: COLO 205
BT-549 = system: BT-549
MDA-N = system: MDA-N
SN12C = system: SN12C
CCRF-CEM = system: CCRF-CEM
MOLT-4 = system: MOLT-4

| Compound | GI50 (HCC 2998) | GI50 (HT-29) | GI50 (SF-268) | GI50 (K562) | GI50 (MDA-MB-231) | GI50 (HOP-62) | GI50 (MDA-MB-435) | GI50 (UACC-62) | GI50 (Malme-3M) | GI50 (U-251) | GI50 (HCT-116) | GI50 (T47D) | GI50 (TK-10) | GI50 (COLO 205) | GI50 (BT-549) | GI50 (MDA-N) | GI50 (SN12C) | GI50 (CCRF-CEM) | GI50 (MOLT-4) |
| --- | --- | --- | --- | --- | --- | --- | --- | --- | --- | --- | --- | --- | --- | --- | --- | --- | --- | --- | --- |
| CC(=O)Nc1c(C)cc(OCC(=O)O)cc1C | > 100 µM (inactive) | > 100 µM (inactive) | > 100 µM (inactive) | > 100 µM (inactive) | > 100 µM (inactive) | > 100 µM (inactive) | > 100 µM (inactive) | > 100 µM (inactive) | > 100 µM (inactive) | > 100 µM (inactive) | > 100 µM (inactive) | > 100 µM (inactive) | > 100 µM (inactive) | > 100 µM (inactive) | > 100 µM (inactive) | > 100 µM (inactive) | > 100 µM (inactive) | > 100 µM (inactive) | – |
| NNc1nc2ccccc2s1 | > 100 µM (inactive) | > 100 µM (inactive) | > 100 µM (inactive) | > 100 µM (inactive) | > 100 µM (inactive) | – | > 100 µM (inactive) | > 100 µM (inactive) | > 100 µM (inactive) | > 100 µM (inactive) | > 100 µM (inactive) | 55.2 µM (inactive) | > 100 µM (inactive) | > 100 µM (inactive) | > 100 µM (inactive) | > 100 µM (inactive) | > 100 µM (inactive) | 35.1 µM (inactive) | 37.3 µM (inactive) |
| O=C(c1ccccc1)n1c(Cc2ccccc2)nc2cc(C34CC5CC(CC(C5)C3)C4)ccc21 | 77.3 µM (inactive) | 43.6 µM (inactive) | > 100 µM (inactive) | > 100 µM (inactive) | 54.2 µM (inactive) | 56.4 µM (inactive) | 92 µM (inactive) | 48.6 µM (inactive) | 29.3 µM (inactive) | 44.6 µM (inactive) | 44.3 µM (inactive) | 36.7 µM (inactive) | > 100 µM (inactive) | 27.7 µM (inactive) | 46.5 µM (inactive) | 47 µM (inactive) | 35.8 µM (inactive) | 50.5 µM (inactive) | 35.9 µM (inactive) |
| CC(C)C(=O)NCC[C@@H](CNC(=O)OC(C)(C)C)NC(=O)OC(C)(C)C | > 100 µM (inactive) | > 100 µM (inactive) | > 100 µM (inactive) | > 100 µM (inactive) | > 100 µM (inactive) | > 100 µM (inactive) | > 100 µM (inactive) | > 100 µM (inactive) | > 100 µM (inactive) | > 100 µM (inactive) | > 100 µM (inactive) | > 100 µM (inactive) | > 100 µM (inactive) | > 100 µM (inactive) | > 100 µM (inactive) | > 100 µM (inactive) | > 100 µM (inactive) | > 100 µM (inactive) | > 100 µM (inactive) |
| O=c1c2cc(-c3ccccc3)sc2nc2n1N=C(c1ccc(Cl)cc1)CS2 | > 100 µM (inactive) | > 100 µM (inactive) | > 100 µM (inactive) | > 100 µM (inactive) | > 100 µM (inactive) | > 100 µM (inactive) | > 100 µM (inactive) | > 100 µM (inactive) | > 100 µM (inactive) | > 100 µM (inactive) | > 100 µM (inactive) | 57.5 µM (inactive) | > 100 µM (inactive) | > 100 µM (inactive) | > 100 µM (inactive) | > 100 µM (inactive) | > 100 µM (inactive) | > 100 µM (inactive) | > 100 µM (inactive) |
| C1=Cc2nccc3cc4c(c(c23)N1)OCO4 | 8.95 µM (inactive) | – | 8.13 µM (inactive) | 3.17 µM (inactive) | 10.3 µM (inactive) | 7.62 µM (inactive) | 12.7 µM (inactive) | 14.1 µM (inactive) | 9.23 µM (inactive) | 13.5 µM (inactive) | 3.08 µM (inactive) | 6.4 µM (inactive) | 14.7 µM (inactive) | 3.55 µM (inactive) | 20.3 µM (inactive) | 8.02 µM (inactive) | 4.89 µM (inactive) | 7.69 µM (inactive) | 1.39 µM (inactive) |
| Cc1cc(C2(c3cc(C)c(O)c4ncccc34)OC(=O)c3ccccc32)c2cccnc2c1O | 0.0468 µM (active) | 0.0406 µM (active) | 0.0121 µM (active) | 0.0776 µM (active) | 0.0692 µM (active) | 0.0217 µM (active) | 0.0682 µM (active) | 0.0158 µM (active) | 1 µM (active) | 0.0288 µM (active) | 0.00268 µM (active) | 0.0382 µM (active) | > 10 µM (inactive) | 0.67 µM (active) | 0.031 µM (active) | 0.00925 µM (active) | 0.0353 µM (active) | 0.01 µM (active) | 0.522 µM (active) |
| O=C1Nc2ccc(Br)cc2/C1=N/S(=O)(=O)O | 51.3 µM (inactive) | 40.1 µM (inactive) | 62.8 µM (inactive) | 17.3 µM (inactive) | 16.3 µM (inactive) | 60.5 µM (inactive) | 6.38 µM (inactive) | 18.7 µM (inactive) | 26.1 µM (inactive) | 13.6 µM (inactive) | 10.6 µM (inactive) | 29 µM (inactive) | 14.5 µM (inactive) | 46.8 µM (inactive) | 34.8 µM (inactive) | 11.4 µM (inactive) | 18.4 µM (inactive) | 6.85 µM (inactive) | 22 µM (inactive) |
| CCCCC1(NN=C2CCCCC2)C(=O)N(c2ccccc2)N(c2ccccc2)C1=O | > 100 µM (inactive) | > 100 µM (inactive) | > 100 µM (inactive) | 30 µM (inactive) | > 100 µM (inactive) | > 100 µM (inactive) | > 100 µM (inactive) | > 100 µM (inactive) | – | > 100 µM (inactive) | > 100 µM (inactive) | > 100 µM (inactive) | > 100 µM (inactive) | > 100 µM (inactive) | > 100 µM (inactive) | > 100 µM (inactive) | > 100 µM (inactive) | 21.6 µM (inactive) | 26.2 µM (inactive) |
| Cc1cccc(NC(Nc2cccc(C)c2)=C(C(Cl)=C(Cl)Cl)[N+](=O)[O-])c1 | 22.8 µM (inactive) | 15.3 µM (inactive) | 13.6 µM (inactive) | 50.8 µM (inactive) | 3.38 µM (inactive) | 16.7 µM (inactive) | 8.87 µM (inactive) | 13.4 µM (inactive) | 14.4 µM (inactive) | 12.6 µM (inactive) | 5.31 µM (inactive) | 11.9 µM (inactive) | 12.4 µM (inactive) | 12.6 µM (inactive) | 11.6 µM (inactive) | 7.45 µM (inactive) | 7.59 µM (inactive) | 63.5 µM (inactive) | 2.17 µM (inactive) |
| CCN(CC)C(=O)Cn1c(-c2ccccc2)cc2ccccc21 | 78.7 µM (inactive) | 29 µM (inactive) | 29 µM (inactive) | 25.8 µM (inactive) | 37.5 µM (inactive) | 57.5 µM (inactive) | 34.1 µM (inactive) | > 10 µM (inactive) | 80.4 µM (inactive) | 40.1 µM (inactive) | 24.8 µM (inactive) | 42 µM (inactive) | 34.9 µM (inactive) | 16.6 µM (inactive) | 33 µM (inactive) | 28.1 µM (inactive) | 97.3 µM (inactive) | 24.3 µM (inactive) | 14.5 µM (inactive) |
| O=c1[nH]cc(/N=C/c2cc(Cl)cc(Cl)c2O)c(=O)[nH]1 | 33.3 µM (inactive) | 26.5 µM (inactive) | 14.2 µM (inactive) | 27.8 µM (inactive) | 48.3 µM (inactive) | 26.1 µM (inactive) | 23.5 µM (inactive) | 26.5 µM (inactive) | 20.8 µM (inactive) | 32.7 µM (inactive) | 20.6 µM (inactive) | 21.7 µM (inactive) | > 100 µM (inactive) | 24.8 µM (inactive) | 45.1 µM (inactive) | 29.2 µM (inactive) | 35.2 µM (inactive) | 20 µM (inactive) | 21.9 µM (inactive) |
| CC/C(Cl)=N\OC(=O)Nc1ccc(OC)c(C)c1 | 19.6 µM (inactive) | 17.4 µM (inactive) | 29.2 µM (inactive) | 15.7 µM (inactive) | 30.6 µM (inactive) | 34.4 µM (inactive) | 34.2 µM (inactive) | 15 µM (inactive) | 11.4 µM (inactive) | 45.3 µM (inactive) | 12.6 µM (inactive) | 13.9 µM (inactive) | 20.6 µM (inactive) | 15.1 µM (inactive) | 12.9 µM (inactive) | 18.7 µM (inactive) | 15.9 µM (inactive) | 4.93 µM (inactive) | 5.74 µM (inactive) |
| CN(C)CCNC(=O)c1cccc2nc3c(nc12)-c1ccccc1C3=O | 15 µM (inactive) | 6.76 µM (inactive) | 11.8 µM (inactive) | 3.16 µM (inactive) | 7.89 µM (inactive) | 6.17 µM (inactive) | 14.8 µM (inactive) | 19.1 µM (inactive) | 9.95 µM (inactive) | 13.4 µM (inactive) | 12.7 µM (inactive) | 12.9 µM (inactive) | 18.6 µM (inactive) | 17.6 µM (inactive) | 14.3 µM (inactive) | 9.89 µM (inactive) | 11 µM (inactive) | 2.56 µM (inactive) | 0.721 µM (active) |
| CCO[C@H]1O[C@@H]2OC3(C)CCC4[C@H](C)CCC([C@H]1C)[C@]42OO3 (stereo partly specified) | 97.1 µM (inactive) | 61.2 µM (inactive) | > 100 µM (inactive) | 15.9 µM (inactive) | > 57 µM (inactive) | > 100 µM (inactive) | 19.1 µM (inactive) | > 67.1 µM (inactive) | 42.3 µM (inactive) | 42.7 µM (inactive) | 35.2 µM (inactive) | 7.11 µM (inactive) | > 95.5 µM (inactive) | 2.98 µM (inactive) | > 100 µM (inactive) | 49.7 µM (inactive) | 68.2 µM (inactive) | 3.44 µM (inactive) | 7.91 µM (inactive) |
